# Source: US9840495B2, “Oxindole derivatives carrying a piperidyl-substituted azetidinyl substituent and use thereof for treating vasopressine-related diseases” (AbbVie Deutschland GmbH & Co. KG, priority 2013, dated 2017)
# Legend:
# [1] = target: T1, human vasopressin V1b receptor (Homo sapiens, UniProt P47901); experiment: biochemical
# T1 sequence (P47901 1-424): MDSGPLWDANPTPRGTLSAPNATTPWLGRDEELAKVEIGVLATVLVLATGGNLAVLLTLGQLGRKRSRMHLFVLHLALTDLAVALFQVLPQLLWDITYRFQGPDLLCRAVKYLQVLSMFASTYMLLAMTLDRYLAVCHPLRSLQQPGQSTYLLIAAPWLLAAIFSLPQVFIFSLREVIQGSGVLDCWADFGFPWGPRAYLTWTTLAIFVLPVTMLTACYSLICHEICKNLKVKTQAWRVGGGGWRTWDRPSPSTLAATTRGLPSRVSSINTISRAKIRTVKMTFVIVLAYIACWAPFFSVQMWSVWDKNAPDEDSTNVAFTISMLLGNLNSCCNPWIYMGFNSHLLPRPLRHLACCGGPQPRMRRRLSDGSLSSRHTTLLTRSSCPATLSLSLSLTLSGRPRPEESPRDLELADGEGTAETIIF
# [2] = target: human vasopressin V1a receptor (Homo sapiens, UniProt P37288); experiment: Vasopressin V1a receptor binding assay (125I-AVP displacement, CHO-K1 membranes); conditions: selectivity quotient, human V1a vs human V1b receptor binding
# human vasopressin V1a receptor, sequence (P37288 whole entry): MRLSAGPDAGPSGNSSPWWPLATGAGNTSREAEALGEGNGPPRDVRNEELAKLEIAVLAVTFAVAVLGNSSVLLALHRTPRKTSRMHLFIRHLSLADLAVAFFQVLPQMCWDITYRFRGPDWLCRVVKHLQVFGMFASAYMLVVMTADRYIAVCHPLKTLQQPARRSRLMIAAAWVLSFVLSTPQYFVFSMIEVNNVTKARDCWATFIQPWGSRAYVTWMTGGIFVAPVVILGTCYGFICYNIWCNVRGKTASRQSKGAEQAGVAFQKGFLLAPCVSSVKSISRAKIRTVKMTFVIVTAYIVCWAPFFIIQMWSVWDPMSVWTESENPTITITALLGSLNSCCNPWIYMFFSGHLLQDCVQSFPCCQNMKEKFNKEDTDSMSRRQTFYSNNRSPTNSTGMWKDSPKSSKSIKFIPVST
structure (smiles),measurement,setting,value
"COc1ccc(S(=O)(=O)N2C(=O)[C@@](NC(=O)N3CC(N4CCC(N5CCOCC5)CC4)C3)(c3cc(OC)ccc3OC)c3cc(C#N)ccc32)c(OC)c1 [Example 45, (S)—N-(5-Cyano-3-(2,5-dimethoxyphenyl)-1-((2,4-dimethoxyphenyl)sulfonyl)-2-oxoindolin-3-yl)-3-(4-morpholinopiperidin-1-yl)azetidine-1-carboxamide]",Ki,[1],< 1 nM
same,Ki(h-V1a)/Ki(h-V1b),[2],+ (10-<25)
